Key:
Human cGAS = Human cGAS (Homo sapiens (Human), UniProt Q8N884); assay: Human cGAS enzyme assay (hcGAS IC50, in vitro), cGAMP formation by RapidFire MS; assay type: biochemical; settings: 45 bp dsDNA, GTP/ATP;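 further: compounds preincubated 60 min, then GTP and ATP (30 µM each) added for 90 min at room temperature, cGAMP read relative to cyclic-di-GMP internal standard, no-enzyme/DNA wells as 0%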
[1] = system: IFN induction in virus-stimulated THP1 cells; assay: Human cGAS cell assay, baculovirus-stimulated THP1-Dual cells, Lucia luciferase reporter (THP1(vir) IC50); assay type: cell-based; settings: for IC50: Homo sapiens, THP-1, baculovirus-stimulated THP1-Dual cells, 18 h; for Ratio THP(cGAMP) IC50/THP(vir) IC50: selectivity for cGAS inhibition;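 on all read-outs here: IRF-dependent luminescence, 8 concentrations up to 10 µM in 1% DMSO, 0% = unstimulated cells, 100% = DMSO plus virus, counter assay stimulated with cGAMP downstream of cGAS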
Text: THP1-Dual™ cells (InvivoGen #thpd-nfis) expressing IRF dependent Lucia luciferase reporter were used as basis for both assays. For the detection of cellular cGAS activity cells were stimulated by a baculovirus (pFastbac-1, Invitrogen, no coding insert) infection that delivers the cGAS enzyme stimulating double-stranded DNA (measurement of THP1(vir) IC50).
(§1) For the counter assay, cells were stimulated by cGAMP (SigmaAldrich #SML1232) to activate the identical pathway independent and directly downstream of cGAS (measurement of THP1(cAMP) IC50). Pathway activity was monitored by measuring the Lucia luciferase activity induced by either DNA stimulated cGAS enzyme activity (measurement of THP1^(vir) IC50) or by cGAMP directly (measurement of THP1(cAMP) IC50, counter assay).
Typically, 8 concentrations were used with the highest concentration at 10 μM in the final assay volume followed by ˜1:5 dilution steps. DMSO concentration was set to 1% in the final assay volume. The 384 well assay plate contained 21 test compounds (column 1-22), and DMSO in column 23 and 24.
The baculovirus solution was then added 1:200 (may have varied according to virus batch) to the cells (measurement of THP1(vir) IC50).
(§2) 30 μL of the cell/virus-mix were added to each well of the compound plate from column 1-23 via MultiDrop Combi dispenser (5000 cells/well). In column 24, 30 μl/5000 cells/well without virus were added as a low control.
(§3) The plates were then incubated for 18 h at 37° C. in a humidified incubator.
(§4) Following that, 15 μL of QuantiLuc detection reagent (InvivoGen #rep-qlcg5) were added to each well using a MultiDrop Combi. Measurement was done immediately after the addition using an EnVision reader (US-luminescence read-mode).
Data Evaluation and Calculation:
(§5) For data evaluation and calculation, the measurement of the low control was set as 0% control and the measurement of the high control was set as 100% control. The IC50 values were calculated using the standard 4 parameter logistic regression formula. Calculation: [y=(a−d)/(1+(x/c)^b)+d], a=low value, d=high value; x=conc M; c=1C50 M; b=slope

[2] = system: IFN induction in cGAMP-stimulated THP1 cells; assay: cGAMP stimulated counter cell assay, THP1-Dual cells, Lucia luciferase reporter (THP1(cGAMP) IC50); assay type: cell-based; settings: Homo sapiens, THP-1, THP1-Dual cells stimulated with 10 μM cGAMP;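 further: IRF-driven Lucia luciferase luminescence after 18 h at 37° C, compound series topping at 10 µM with 1% DMSO, unstimulated wells as 0% and DMSO wells as 100%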
Text: 6.2 Method: Human cGAS Cell Assay and cGAMP Stimulated Counter Cell Assay (THP1(vir) IC50 and THP1(cGAMP) IC50)
THP1-Dual™ cells (InvivoGen #thpd-nfis) expressing IRF dependent Lucia luciferase reporter were used as basis for both assays.
as §1
Compounds were delivered in 10 mM DMSO solution, serially diluted and transferred to the 384 well assay plate (Greiner #781201) using an Echo acoustic dispenser. Typically, 8 concentrations were used with the highest concentration at 10 μM in the final assay volume followed by ˜1:5 dilution steps. DMSO concentration was set to 1% in the final assay volume. The 384 well assay plate contained 21 test compounds (column 1-22), and DMSO in column 23 and 24.
as §2, §3, §4
Data Evaluation and Calculation:
as §5

[3] = system: IFN induction in dsDNA-stimulated human whole blood; assay: Human whole blood assay, dsDNA transfection, IFNα2a production (hWB IC50); assay type: cell-based;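 further: cGAS pathway activity, IFNα2a in plasma by MSD immunoassay after 22 h at 37 °C, 8 concentrations up to 10 µM in 0.1% DMSO, DMSO controls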
Experimental: For the detection of cellular cGAS activity human whole blood was stimulated by transfection with double stranded DNA. Pathway activity was monitored by measuring the IFNα2α production.
Typically, 8 concentrations were used with the highest concentration at 10 μM in the final assay volume followed by ˜1:5 dilution steps. DMSO concentration was set to 0.1% in the final assay volume. The 96-well assay plate contained 10 test compounds, and DMSO in control wells.
Whole blood was kept at room temperature for a maximum of 3 hours after collection until use in the assay.
160 μl of the whole blood samples was transferred to each well of the 96-well assay plates filled with compound/OptiMEM. All assay plates were prepared as duplicates with blood from different donors. Blood plates were kept at room temperature for 60 minutes and continuous shaking with 450 rpm, covered with the lid, but not sealed.
20 μl OptiMEM and 9.6:1 Fugene was added to all low control wells.
After covering assay plates with aera seals and the lid, blood plates were kept at room temperature for 30 minutes and continuous shaking with 450 rpm, followed by an overnight incubation of 22 h at 37° C. in the incubator, without shaking.
U-Plex MSD GOLD 96-well Small Spot Strepavidin SECTOR Plates (Meso Scale Diagnostics #L45SA-5) were coated with 25 μl diluted capture antibody. Coated plates were incubated for 60 min at room temperature under continuous shaking at 700 rpm. MSD IFNα-2a plates were washed three times with 150 μl wash buffer (1×HBSS, 0.05% Tween).
After blocking the plates with 100 μl block solution/well (1×HBSS with 0.2% Tween, 2% BSA) for 60 min at room temperature and continuous shaking at 700 rpm, plates were emptied as dry as possible by dumping just before continuing with the human plasma.
Whole Blood assay plates were centrifuged at 1600 rpm for 10 minutes. 25 μl of supernatant was transferred with a pipetting robot from each whole blood plate to the corresponding IFNα-2a plate.
Plates were sealed with microplate seals and kept at room temperature again under continuous shaking at 700 rpm for two hours.
Next MSD IFNα-2a plates were washed three times with 150 μl wash buffer (1×HBSS, 0.05% Tween), before adding 25 μl MSD SULFO-TAG IFNα-2a Antibody solution (1:100 diluted in Diluent 3 (Meso Scale Diagnostics #R50AP-2) to each well of the plates.
Afterwards plates were sealed with microplate seals and kept at room temperature again under continuous shaking at 700 rpm for two hours. Finally, MSD IFNα-2α plates were washed three times with 150 μl wash buffer (1×HBSS, 0.05% Tween). 150 μl 2× Read buffer was added to each well and plates were immediately measured with the MSD Sector S600 Reader using the vendor barcode.
For data evaluation and calculation, % control calculation of each well was based on the mean of high (DNA stimulated control) and mean of low (unstimulated control) controls by using the following formula: [counts(sample)−counts(low))/(counts(high)−counts(low))]*100
The IC50 values were calculated using the standard 4 parameter logistic regression formula. Calculation: [y=(a−d)/(1+(x/c)^b)+d], a=low value, d=high value; x=conc M; c=1C50 M; b=slope

Chain of Human cGAS (Q8N884 whole entry): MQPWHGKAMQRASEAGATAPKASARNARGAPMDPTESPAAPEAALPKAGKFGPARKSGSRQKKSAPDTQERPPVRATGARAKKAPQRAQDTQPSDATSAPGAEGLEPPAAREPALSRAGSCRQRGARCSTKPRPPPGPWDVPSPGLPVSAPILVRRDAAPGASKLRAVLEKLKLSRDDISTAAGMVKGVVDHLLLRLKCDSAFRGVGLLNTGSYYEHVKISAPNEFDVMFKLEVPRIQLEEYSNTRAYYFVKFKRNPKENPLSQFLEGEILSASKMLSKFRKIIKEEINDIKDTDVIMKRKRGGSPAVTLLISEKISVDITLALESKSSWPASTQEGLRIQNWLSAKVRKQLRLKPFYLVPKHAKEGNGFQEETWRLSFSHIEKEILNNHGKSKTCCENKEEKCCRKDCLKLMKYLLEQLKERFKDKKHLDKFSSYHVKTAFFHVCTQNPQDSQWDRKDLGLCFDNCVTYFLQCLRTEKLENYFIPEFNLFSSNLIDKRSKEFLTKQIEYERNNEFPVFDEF

Row | Structure (SMILES) | IC50 (Human cGAS) [nM] | IC50 [1] [nM] | Ratio THP(cGAMP) IC50/THP(vir) IC50 [1] | IC50 [2] [µM] | IC50 [3] [nM]
1 | C#Cc1cnc(O[C@H]2C[C@@H](C(=O)O)N(c3nc(C(F)(F)F)nc4c3oc3ccccc34)C2)c([C@]2(F)CCS(=O)(=O)C(C)(C)C2)c1 [Example 1.14] | 9 | 42 | 127 | 5.28 | 53
2 | O=C(O)[C@@H]1C[C@H](Oc2ncc(-n3cc(Cl)cn3)cc2C2(F)CCOCC2)CN1c1nc(C(F)F)nc2c1oc1ccccc12 [Example 5.01, (2S,4S)-4-{[5-(4-chloro-1H-pyrazol-1-yl)-3-(4-fluorooxan-4-yl)pyridin-2-yl]oxy}-1-[4-(difluoromethyl)-8-oxa-3,5-diazatricyclo[7.4.0.0^2,7]trideca-1(13),2,4,6,9,11-hexaen-6-yl]pyrrolidine-2-carboxylic acid] | 12 | 1000 | >17 | > 16.6 | 2890
3 | C#Cc1cnc(O[C@H]2C[C@@H](C(=O)O)N(c3nc(C(F)F)nc4c3oc3ccccc34)C2)c([C@@]2(F)CCS(=O)(=O)C[C@@H]2C)c1 [Example 2.11] | 2 | 4 | >3829 | > 16.6 | 3
4 | CO[C@]1(c2cc(Cl)cnc2O[C@H]2C[C@@H](C(=O)O)N(c3nc(C(F)F)nc4c3oc3ccccc34)C2)CC(C)(C)S(=O)(=O)C[C@@H]1C [Example 1.05] | 2 | 44 | 298 | 13.2 | 135
5 | CC(C)(C(=O)N[C@H]1C[C@@H](C(=O)O)N(c2nc(C(F)(F)F)nc3c2oc2ccccc23)C1)c1cn[nH]c1 [Example 58, reference compound] |  | 21000 |  | 23 | > 9980
6 | CC#Cc1cnc(O[C@H]2C[C@@H](C(=O)O)N(c3nc(C(F)F)nc4c3oc3ccccc34)C2)c([C@@]2(F)CCN(C(C)=O)C[C@@H]2C)c1 [Example 2.18] | 13 | 59 | 215 | 12.6 | 97
7 | C#Cc1cnc(O[C@H]2C[C@@H](C(=O)O)N(c3nc(C(F)F)nc4c3oc3ccccc34)C2)c([C@@]2(F)CCN(C(C)=O)C[C@@H]2C)c1 [Example 2.20] | 4 | 17 | 583 | 9.89 | 25
8 | C#Cc1cnc(O[C@H]2C[C@@H](C(=O)O)N(c3nc(C(F)(F)F)nc4c3oc3ccccc34)C2)c(C23CCOCC2C3)c1 (stereo partly drawn) [Example 4.01, (2S,4S)-4-[(5-ethynyl-3-{3-oxabicyclo[4.1.0]heptan-6-yl}pyridin-2-yl)oxy]-1-[4-(trifluoromethyl)-8-oxa-3,5-diazatricyclo[7.4.0.0^2,7]trideca-1(13),2,4,6,9,11-hexaen-6-yl]pyrrolidine-2-carboxylic acid] | 8 | 784 | >21 | > 16.6 | 1500
9 | COc1cc(-c2cnc(O[C@H]3C[C@@H](C(=O)O)N(c4nc(C(F)F)nc5c4oc4ccccc45)C3)c([C@@]3(F)CCN(C(C)=O)C[C@@H]3C)c2)c(F)cn1 [Example 3.03] | 12 | 18 | 568 | 10.4 | 53
10 | C[C@H]1CS(=O)(=O)CC[C@]1(F)c1cc(Cl)cnc1O[C@H]1C[C@@H](C(=O)O)N(c2nc(C(F)(F)F)nc3c2oc2ccccc23)C1 [Example 2.10] | 3 | 4 | 4605 | 18.8 | 15
11 | C[C@H]1CS(=O)(=O)C(C)(C)C[C@]1(F)c1cc(Cl)cnc1O[C@H]1C[C@@H](C(=O)O)N(c2nc(C(F)(F)F)nc3c2oc2ccccc23)C1 [Example 1.06] | 5 | 12 | 479 | 5.82 | 24
12 | C#Cc1cnc(O[C@H]2C[C@@H](C(=O)O)N(c3nc(C(F)F)nc4c3oc3ccccc34)C2)c([C@@]2(F)CCOC[C@@H]2C)c1 [Example 1.02] | 3 | 351 | 54 | 18.9 | 103
13 | C#Cc1cnc(O[C@H]2C[C@@H](C(=O)O)N(c3nc(C(F)F)nc4c3oc3ccccc34)C2)c([C@]2(F)CCS(=O)(=O)C[C@H]2C)c1 [Example 2.14] | 5 | 248 | 31 | 7.76 | 124
14 | C[C@H]1CS(=O)(=O)CC[C@@]1(F)c1cc(Cl)cnc1O[C@H]1C[C@@H](C(=O)O)N(c2nc(C(F)F)nc3c2oc2ccccc23)C1 [Example 1.11] | 2 | 731 |  | > 16.6 | 194
15 | O=C(O)[C@@H]1C[C@H](Oc2ncc(Cl)cc2[C@@]2(F)CCS(=O)(=O)C3(COC3)C2)CN1c1nc(C(F)F)nc2c1oc1ccccc12 [Example 1.19] | 5 | 566 | 25 | 14 | 316
16 | Cc1nc(N2C[C@@H](CC(=O)Nc3ccncc3)C[C@H]2C(=O)O)c2oc3ccccc3c2n1 [Example 28, reference compound] |  | > 32000 |  | > 17 | > 9990
17 | C#Cc1cnc(O[C@H]2C[C@@H](C(=O)OC)N(c3nc(C(F)(F)F)nc4c3oc3ccccc34)C2)c([C@@]2(F)CCS(=O)(=O)C[C@@H]2C)c1 [Example P01] | 19100 | 11 |  | > 16.6 | 67
18 | O=C(O)[C@@H]1C[C@H](Oc2ncc(Cl)cc2[C@]2(F)CCS(=O)(=O)C3(CC3)C2)CN1c1nc(C(F)F)nc2c1oc1ccccc12 [Example 1.17] | 3 | 54 | 412 | 22.1 | 45
19 | C[C@H]1COCC[C@]1(F)c1cc(-c2cccc(N(C)C)c2)cnc1O[C@H]1C[C@@H](C(=O)O)N(c2nc(C(F)F)nc3c2oc2ccccc23)C1 [Example 6.04] | 17 | 21 | 371 | 7.68 | 75
20 | COC(=O)[C@@H]1C[C@H](Oc2ncc(Cl)cc2[C@@]2(F)CCS(=O)(=O)C[C@@H]2C)CN1c1nc(C(F)F)nc2c1oc1ccccc12 [Example P02] | > 9950 | 29 |  | > 16.6 | 140
21 | O=C(O)[C@@H]1C[C@H](Oc2ncc(Br)cc2C2(F)CCS(=O)(=O)CC2)CN1c1nc(C(F)F)nc2c1oc1ccccc12 [Example 2.04] | 5 | 638 | >26 | > 16.6 | 115
22 | O=C(O)[C@@H]1C[C@H](Oc2ncc(Cl)cc2C2(F)CCS(=O)(=O)CC2)CN1c1nc(C(F)(F)F)nc2c1oc1ccccc12 [Example 2.02] | 4 | 540 | >31 | > 16.6 | 89
23 | C#Cc1cnc(O[C@H]2C[C@@H](C(=O)O)N(c3nc(C(F)(F)F)nc4c3oc3ccccc34)C2)c([C@@]2(F)CCS(=O)(=O)C[C@@H]2C)c1 [Example 2.12] | 3 | 8 | 2619 | 21.8 | 8
24 | C#Cc1cnc(O[C@H]2C[C@@H](C(=O)O)N(c3nc(C(F)(F)F)nc4c3oc3ccccc34)C2)c([C@@]2(F)CCN(C(C)=O)C[C@@H]2C)c1 [Example 2.19] | 5 | 23 | 435 | 9.96 | 57
25 | CO[C@]1(c2cc(Cl)cnc2O[C@H]2C[C@@H](C(=O)O)N(c3nc(C(F)F)nc4c3oc3ccccc34)C2)CCS(=O)(=O)C[C@@H]1C [Example 2.06] | 8 | 314 | 46 | 14.6 | 287
26 | C[C@@H]1CS(=O)(=O)CC[C@@]1(F)c1cc(Cl)cnc1O[C@H]1C[C@@H](C(=O)O)N(c2nc(C(F)F)nc3c2oc2ccccc23)C1 [Example 1.12] | 9 | 314 |  | 15.3 | 
27 | Cc1nc(N2C[C@@H](Nc3ccncc3)C[C@H]2C(=O)O)c2oc3ccccc3c2n1 [Example 38, reference compound] |  | > 17000 |  | > 17 | > 9990
28 | C[C@H]1COCC[C@]1(O)c1cc(Cl)cnc1O[C@H]1C[C@@H](C(=O)O)N(c2nc(C(F)F)nc3c2oc2ccccc23)C1 [Example 1.01, (2S,4S)-4-({5-Chloro-3-[(3S,4R)-4-hydroxy-3-methyloxan-4-yl]pyridin-2-yl}oxy)-1-[4-(difluoro-methyl)-8-oxa-3,5-diazatricyclo[7.4.0.0^2,7]trideca-1(13),2,4,6,9,11-hexaen-6-yl]pyrrolidine-2-carboxylic acid] | 5 | 530 | >31 | > 16.6 | 
29 | Cc1nc(N2CCC[C@H]2C(=O)O)c2oc3ccccc3c2n1 [Example 15, reference compound] |  | > 17000 |  | > 17 | 
30 | O=C(O)[C@@H]1C[C@H](Oc2ncc(Cl)cc2C2(F)CCS(=O)(=O)CC2)CN1c1nc(C(F)F)nc2c1oc1ccccc12 [Example 2.01, (2S,4S)-4-{[5-Chloro-3-(4-fluoro-1,1-dioxo-1-I-6-thian-4-yl)pyridin-2-yl]oxy}-1-[4-(difluoromethyl)-8-oxa-3,5-diazatricyclo[7.4.0.0^2,7]trideca-1(13),2,4,6,9,11-hexaen-6-yl]pyrrolidine-2-carboxylic acid] | 3 | 179 | >93 | > 16.6 | 

Reference: US12043625B2, “Pyridine derivatives with c-linked cyclic substituents as cGAS inhibitors” (BOEHRINGER INGELHEIM INTERNATIONAL GMBH, priority 2021, dated 2024)
